Structures are written as SMILES. ± gives the expanded uncertainty stated by the source.

The conditions of this series: Liquid; for mass density: 298.15 K, 101.33 kPa; for Normal boiling temperature: Ebulliometric method (Recirculating still).

A word on the mass density: it is mass per unit of volume. With `CC(C)O` [propan-2-ol], the mass density was determined as 780.8 ± 0.3 kg/m3 and the Normal boiling temperature came out at 82.24 ± 0.2 °C.
Regarding `CCO` [ethanol], the mass density was 785.1 ± 0.3 kg/m3 and the Normal boiling temperature amounted to 78.31 ± 0.2 °C.
Take `CCCO` [propan-1-ol]: the mass density was found to be 799.6 ± 0.3 kg/m3 and the Normal boiling temperature turned out to be 97.06 ± 0.2 °C.

For the origin of these results see the NIST ThermoML archive (doi:10.1021/je0505164).
